Results published in patent publication US9174994B2, “Enhanced treatment regimens using mTor inhibitors” (INTELLIKINE LLC, priority 2011, dated 2015).

Test: Phase I clinical trial: treatment-emergent adverse events (patients, n (%)), dose limiting toxicity, MTD
Assay type: in vivo
Protocol: Safety, maximum tolerated dose (MTD), pharmacokinetics (PK) and preliminary antitumor activity were evaluated.
Pharmacodynamic (PD) endpoints were evaluated in surrogate (peripheral blood cells [PBCs], skin) and tumor tissues for the phosphorylation of TORC1-dependent markers (4EBP1/S6), and TORC2-dependent markers (AKT/PRAS40).

## CC(C)n1nc(-c2ccc3oc(N)nc3c2)c2c(N)ncnc21 [compound A]
7 mg/week (N = 3)
  Oral discomfort: 0 (0%)
  Patients Reporting at Least One Related TEAE: 3
  Pruritus: 0 (0%)
  RASH: 0 (0%)
  Rash: 0 (0%)
  Vomiting: 2 (67%)
  WEAKNESS: 0 (0%)
9 mg/3 W, QDx3d QW (N = 5)
  Alanine aminotransferase increased: 0 (0%)
  Asthenia: 1 (20%)
  Catheter site inflammation: 0 (0%)
  Catheter site pain: 0 (0%)
  Decreased appetite: 0 (0%)
  Diarrhoea: 1 (20%)
  Dry skin: 1 (20%)
  Dysgeusia: 0 (0%)
  Dyspnoea: 1 (20%)
  Fatigue: 0 (0%)
  Headache: 0 (0%)
  Hyperbilirubinaemia: 0 (0%)
  Hypercholesterolaemia: 1 (20%)
  Hyperglycaemia: 1 (20%)
  Hypertransaminasaemia: 1 (20%)
  Hypertriglyceridaemia: 1 (20%)
  Hypomagnesaemia: 1 (20%)
  Hypotension: 1 (20%)
  Low fever: 0 (0%)
  Lymphopenia: 1 (20%)
  Mucosal inflammation: 2 (40%)
  Nausea: 2 (40%)
  Palmar-plantar erythrodysaesthesia syndrome: 1 (20%)
  Patients Reporting at Least One Related TEAE: 4 (80%)
  Platelet count decreased: 0 (0%)
  Pruritus: 2 (40%)
  Pyrexia: 0 (0%)
  Rash: 3 (60%)
  Rash macular: 0 (0%)
  Urinary tract infection: 1 (20%)
  Vomiting: 2 (40%)
9 mg/3 W, QDx3d QW (N = 5), 2nd Asthenia line
  Asthenia: 0 (0%)
10 mg/5 W, QDx5d QW (N = 3)
  Diarrhoea: 0 (0%)
  Patients Reporting at Least One Related TEAE: 1 (33%)
  Rash: 0 (0%)
  Urine tract infection: 1 (33%)
  Vomiting: 1 (33%)
10 mg/5 W, QDx5d QW (N = 3), 1st Nausea line
  Nausea: 1 (33%)
10 mg/5 W, QDx5d QW (N = 3), 2nd Nausea line
  Nausea: 0 (0%)
10 mg/week (N = 3)
  ASTHENIA: 0 (0%)
  ATHENIA: 0 (0%)
  Alanine aminotransferase increased: 0 (0%)
  Aspartate aminotransferase increased: 1 (33%)
  Asthenia: 0 (0%)
  Blood creatinine increased: 0 (0%)
  Blood triglycerides increased: 0 (0%)
  DIARRHEA: 0 (0%)
  Decreased appetite: 0 (0%)
  Diarrhoea: 0 (0%)
  Dysgeusia: 0 (0%)
  Dyspepsia: 0 (0%)
  HYPERGLYCEMIA: 0 (0%)
  Hyperglycaemia: 1 (33%)
  Lymphopenia: 0 (0%)
  Malaise: 0 (0%)
  Mucosal inflammation: 0(0%)
  Muscle spasms: 0 (0%)
  Nausea: 2 (67%)
  Oral discomfort: 1 (33%)
  Patients Reporting at Least One Related TEAE: 2 (67%)
  Pruritus: 0 (0%)
  RASH: 0 (0%)
  Rash: 0 (0%)
  Vomiting: 1 (33%)
  WEAKNESS: 0 (0%)
12 mg/3 W, QDx3d QW (N = 3)
  Alanine aminotransferase increased: 0 (0%)
  Asthenia: 1 (33%)
  Catheter site inflammation: 1 (33%)
  Catheter site pain: 1 (33%)
  Decreased appetite: 1 (33%)
  Diarrhoea: 0 (0%)
  Dry skin: 0 (0%)
  Dysgeusia: 1 (33%)
  Dyspnoea: 0 (0%)
  Fatigue: 0 (0%)
  Headache: 0 (0%)
  Hyperbilirubinaemia: 0 (0%)
  Hypercholesterolaemia: 0 (0%)
  Hyperglycaemia: 2 (67%)
  Hypertransaminasaemia: 0 (0%)
  Hypertriglyceridaemia: 0 (0%)
  Hypomagnesaemia: 0 (0%)
  Hypotension: 0 (0%)
  Low fever: 0 (0%)
  Lymphopenia: 0 (0%)
  Mucosal inflammation: 1 (33%)
  Nausea: 2 (67%)
  Palmar-plantar erythrodysaesthesia syndrome: 0 (0%)
  Patients Reporting at Least One Related TEAE: 2 (67%)
  Platelet count decreased: 0 (0%)
  Pruritus: 1 (33%)
  Pyrexia: 0 (0%)
  Rash: 0 (0%)
  Rash macular: 1 (33%)
  Urinary tract infection: 0 (0%)
  Vomiting: 0 (0%)
12 mg/3 W, QDx3d QW (N = 3), 2nd Asthenia line
  Asthenia: 0 (0%)
15 mg/week (N = 3)
  ASTHENIA: 0 (0%)
  ATHENIA: 0 (0%)
  Alanine aminotransferase increased: 0 (0%)
  Aspartate aminotransferase increased: 0 (0%)
